In patent US9980943B2, “Methods of treating muscular dystrophy” (BOARD OF REGENTS OF THE NEVADA SYSTEM OF HIGHER EDUCATION, …, priority 2013, dated 2018):

Legend:
Assay type in all cases: cell-based, mouse
[1] = tested on: α7 integrin (LacZ reporter in α7βgal+/− myoblasts); experiment: Myoblast α7+/LacZ integrin FDG assay (Burkin assay in myoblasts, 96-well); conditions: α7+/LacZ myoblasts, 96-well
[2] = tested on: α7 integrin (LacZ reporter in α7+/LacZ myotubes); experiment: Myotube α7 integrin FDG assay (Burkin assay in myotubes, 96-well); conditions: myotubes
[3] = tested on: β-galactosidase in CMV-LacZ C2C12 myoblasts; experiment: CMV-LacZ secondary screen in C2C12 myoblasts (β-Gal stabilizing assay); conditions: CMV-LacZ C2C12 myoblasts
Procedure, shortened: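 β-gal stabilization was measured in C2C12 myoblasts or myotubes stably transfected with a CMV-driven LacZ construct, using the FDG β-gal assay. Compounds were tested in dose-response at 0.5, 1, 5, 10, 20 and 40 μM, with two replicates per point.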

[4] = tested on: β-galactosidase in CMV-LacZ C2C12 myotubes; experiment: CMV-LacZ secondary screen in C2C12 myotubes (β-Gal stabilizing assay); conditions: C2C12 CMV-LacZ myotubes, fold relative to DMSO
Procedure, shortened: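 A secondary screen identifies compounds that stabilize β-gal independently of the native promoter, using CMV-LacZ C2C12 cells. Curves span 0.5–40 μM at six levels, in duplicate.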

SMILES | Burkin Assay in Myoblasts, signal relative to DMSO ([1]; 0.5 uM) | Burkin Assay in Myoblasts, signal relative to DMSO ([1]; 1 uM) | Burkin Assay in Myoblasts, signal relative to DMSO ([1]; 5 uM) | Burkin Assay in Myoblasts, signal relative to DMSO ([1]; 10 uM) | Burkin Assay in Myoblasts, signal relative to DMSO ([1]; 20 uM) | Burkin Assay in Myoblasts, signal relative to DMSO ([1]; 40 uM) | Burkin Assay in Myotubes, α7 integrin LacZ reporter signal relative to DMSO ([2]; 0.5 uM) | Burkin Assay in Myotubes, α7 integrin LacZ reporter signal relative to DMSO ([2]; 1 uM) | Burkin Assay in Myotubes, α7 integrin LacZ reporter signal relative to DMSO ([2]; 5 uM) | Burkin Assay in Myotubes, α7 integrin LacZ reporter signal relative to DMSO ([2]; 10 uM) | Burkin Assay in Myotubes, α7 integrin LacZ reporter signal relative to DMSO ([2]; 20 uM) | Burkin Assay in Myotubes, α7 integrin LacZ reporter signal relative to DMSO ([2]; 40 uM) | CMV-LACZ in Myoblasts (β-galactosidase activity relative to DMSO) ([3]; 0.5 uM) | CMV-LACZ in Myoblasts (β-galactosidase activity relative to DMSO) ([3]; 1 uM) | CMV-LACZ in Myoblasts (β-galactosidase activity relative to DMSO) ([3]; 5 uM) | CMV-LACZ in Myoblasts (β-galactosidase activity relative to DMSO) ([3]; 10 uM) | CMV-LACZ in Myoblasts (β-galactosidase activity relative to DMSO) ([3]; 20 uM) | CMV-LACZ in Myoblasts (β-galactosidase activity relative to DMSO) ([3]; 40 uM) | CMV-LACZ in Myotubes, signal relative to DMSO ([4]; 0.5 uM) | CMV-LACZ in Myotubes, signal relative to DMSO ([4]; 1 uM) | also measured
CN(CCC1CCCCO1)C(=O)CCc1nnc(CCCCc2ccccc2)o1 (stereo not drawn) [MLS000735021-01] | 0.9402 | 0.9246 | 0.9982 | 0.9765 | 1.025 | 0.9941 | 1.013 | 1.009 | 0.9137 | 1.006 | 0.8444 | 0.8523 | 0.8683 | 1.1646 | 0.9756 | 0.9907 | 1.2130 | 0.9767 | 1.0105 | 1.0221 | CMV-LACZ in Myotubes, signal relative to DMSO ([4]; 5 uM): 0.9548; CMV-LACZ in Myotubes, signal relative to DMSO ([4]; 10 uM): 0.9616; CMV-LACZ in Myotubes, signal relative to DMSO ([4]; 20 uM): 1.0378; CMV-LACZ in Myotubes, signal relative to DMSO ([4]; 40 uM): 1.0778
O=C(Nc1ccccc1Cl)C1CCCN1C(=O)OCc1ccccc1 (stereo not drawn) [MLS001030621-01] | 1.004 | 1.158 | 1.15 | 1.161 | 1.001 | 1.01 | 0.9724 | 0.9493 | 0.999 | 0.9429 | 0.7954 | 0.7203 | 0.7081 | 1.0531 | 1.0494 | 1.1844 | 1.0307 | 0.9063 | 0.7844 | 0.7970 | CMV-LACZ in Myotubes, signal relative to DMSO ([4]; 5 uM): 0.9872; CMV-LACZ in Myotubes, signal relative to DMSO ([4]; 10 uM): 1.0546; CMV-LACZ in Myotubes, signal relative to DMSO ([4]; 20 uM): 0.9024; CMV-LACZ in Myotubes, signal relative to DMSO ([4]; 40 uM): 1.0141
CCOc1cc(C)c(S(=O)(=O)N2CCCCC2)cc1C [MLS000693795-01] | 1.1137 | 1.242 | 1.02 | 0.9728 | 1.187 | 1.24 | 0.8397 | 0.9171 | 0.9381 | 0.9384 | 1.002 | 0.9513 | 0.9100 | 1.1104 | 0.9554 | 0.9207 | 0.8526 | 0.8730 | 0.9771 | 1.0314 | CMV-LACZ in Myotubes, signal relative to DMSO ([4]; 5 uM): 1.1780; CMV-LACZ in Myotubes, signal relative to DMSO ([4]; 10 uM): 1.0774; CMV-LACZ in Myotubes, signal relative to DMSO ([4]; 20 uM): 1.0453; CMV-LACZ in Myotubes, signal relative to DMSO ([4]; 40 uM): 1.0716
CCOC(=O)C1(Cc2cccc(Cl)c2)CCCN(C(=O)CCSC)C1 (stereo not drawn) [MLS001000299-01] | 1.089 | 0.9953 | 0.9552 | 0.975 | 0.9397 | 0.7738 | 0.9225 | 1.006 | 0.8764 | 0.9163 | 0.793 | 0.5578 | 1.4188 | 1.2745 | 0.9901 | 0.8248 | 1.1522 | 1.0107 | 0.6411 | 1.3158 | CMV-LACZ in Myotubes, signal relative to DMSO ([4]; 5 uM): 1.0658; CMV-LACZ in Myotubes, signal relative to DMSO ([4]; 10 uM): 0.9029; CMV-LACZ in Myotubes, signal relative to DMSO ([4]; 20 uM): 0.9544; CMV-LACZ in Myotubes, signal relative to DMSO ([4]; 40 uM): 1.0744
CCOn1c(=O)c(-c2ccccc2)[n+]([O-])c2ccccc21 [MLS001197220-01] | 1.2811 | 1.286 | 1.843 | 0.9218 | 1.111 | 1.0836 | 1.327 | 1.3061 | 1.254 | 1.004 | 0.9 | 0.831 | 1.2028 | 1.1569 | 0.9355 | 1.1383 | 0.9567 | 1.2844 | 0.8896 | 0.9356 | CMV-LACZ in Myotubes, signal relative to DMSO ([4]; 5 uM): 0.9682; CMV-LACZ in Myotubes, signal relative to DMSO ([4]; 10 uM): 0.9289; CMV-LACZ in Myotubes, signal relative to DMSO ([4]; 20 uM): 0.9659; CMV-LACZ in Myotubes, signal relative to DMSO ([4]; 40 uM): 1.0271
